In patent US9066977B2, “Method of utilization of combination of benzophenone derivative or salt thereof and immunosuppressing agent, and pharmaceutical composition comprising these components” (TOYAMA CHEMICAL CO., LTD., priority 2008, dated 2015):

Assays:
[1] = tested on: mouse type II collagen-induced arthritis; experiment: Combined use of compound A and dexamethasone on mouse type II collagen-induced arthritis (Test Example 2); type: in vivo; details: male DBA/1J mice, day following final administration
Experimental: Eight-week-old male DBA/1J mice (8-10 mice per group; Charles River Laboratories Japan) were used. The induction of mouse type II collagen arthritis was conducted by the method according to Test Example 1.
Compound A was dissolved in a 2-fold molar amount of sodium hydroxide solution, and a 3-fold weight of polyvinylpyrrolidone was then added to the solution, followed by dilution with distilled water. The concentrations of compound A in compound A (1 mg/kg and 10 mg/kg)-dosing solutions were adjusted to be 0.1 mg/mL and 1.0 mg/mL. The concentration of compound A in a compound A (1 mg/kg)-dosing solution in combined administration was adjusted to be 0.2 mg/mL. Dexamethasone was suspended in polyvinylpyrrolidone solution. The concentration of dexamethasone in dexamethasone (0.025 mg/kg)-dosing solution was adjusted to be 0.0025 mg/mL. The concentration of dexamethasone in dexamethasone (0.025 mg/kg)-dosing solution in combined administration was adjusted to be 0.005 mg/mL. Each dosing solution was orally administered to the mice.
To control group, polyvinylpyrrolidone solution was orally administered.
After dividing into groups, and the second immunization, compound A and dexamethasone were administered once a day for 14 days.
The evaluation to mouse arthritis was conducted by the method according to Test Example 1.

[2] = tested on: mouse type II collagen-induced arthritis; experiment: Combined use of compound A and methotrexate on mouse type II collagen-induced arthritis (Test Example 1); type: in vivo; details: male DBA/1J mice, day following final administration
Experimental: Eight-week-old male DBA/1J mice (9 or 10 mice per group; Charles River Laboratories Japan) were used. A 2 mg/mL bovine type II collagen dissolved in a 0.1 mol/L acetic acid solution (Koken Co., Ltd.) was mixed with an equal volume of Freund's complete adjuvant (BD Diagnostic Systems) to prepare an emulsion. The emulsion (0.2 mL) was intradermally injected at the hip of each mouse. Twenty-one days after the primary immunization, the same treatment was carried out (secondary immunization), so that type II collagen arthritis was induced.
Compound A was dissolved in a 2-fold molar amount of sodium hydroxide solution, and a 3-fold weight of polyvinylpyrrolidone was then added to the solution, followed by dilution with distilled water. The concentration of compound A in a compound A (1 mg/kg)-dosing solution was adjusted to be 0.1 mg/mL. Methotrexate was suspended in 0.5% methylcellulose solution. The concentration of methotrexate in methotrexate (0.5 mg/kg)-dosing solution was adjusted to be 0.05 mg/mL. Each dosing solution was orally administered to the mice.
To control group, polyvinylpyrrolidone solution and 0.5% methylcellulose solution were orally administered. […]
The knuckle portion and the articulations of wrist and tarsus portions of the four paws of each mouse were evaluated using the following 4 scores. […]

[3] = Compound A 1 mg/kg orally once a day for 14 days

## C[C@@H]1C[C@H]2[C@@H]3CCC4=CC(=O)C=C[C@]4(C)[C@@]3(F)[C@@H](O)C[C@]2(C)[C@@]1(O)C(=O)CO [Dexamethasone, reference compound]
[1]; Dexamethasone 0.025 mg/kg orally once a day for 14 days
  Arthritis inhibition rate (%): 30%

## O=C(O)CCc1cc(C(=O)c2ccc(OC3CCCC3)cc2O)ccc1OCc1ccc2c(O)noc2c1 [Compound A, 3-(5-(4-(cyclopentyloxy)-2-hydroxybenzoyl)-2-((3-hydroxy-1,2-benzisoxazol-6-yl)methoxy)phenyl)propionic acid]
[2]; [3]
  Arthritis inhibition rate (%): 19%
[1]; [3]
  Arthritis inhibition rate (%): 14%
[1]; Compound A 10 mg/kg orally once a day for 14 days
  Arthritis inhibition rate (%): 58%

## CN(Cc1cnc2nc(N)nc(N)c2n1)c1ccc(C(=O)N[C@@H](CCC(=O)O)C(=O)O)cc1 [Methotrexate, reference compound]
[2]; Methotrexate 0.5 mg/kg orally once a day for 14 days
  Arthritis inhibition rate (%): 15%
